Laboratory results published in US20030017148A1, “Prevention of insulin-dependent diabetes, complications thereof, or allograft rejection by inhibition of cyclooxygenase-2 activity” (Oklahoma Medical Research Foundation, priority 2000, published 2003).
Values joined by “and” are separate entries in the source; they are usually repeats but may differ in a detail not shown here. Equal entries are not always repeated.

Experiments:
STZ-induced IDDM [1] = assay: Multiple low-dose STZ-induced IDDM in mice, NS-398 treatment; format: in vivo
Experimental: Chemicals: Streptozotocin was obtained from Sigma Chemical Company (St. Louis, Mo.). NS-398 was obtained from Cayman Chemicals (Ann Arbor, Mich.). Determination of blood glucose level was performed using the glucose oxidase kit obtained from Sigma Chemical Co. Total glycated hemoglobin (Hb A1) was measured using a kit from Sigma. Animal treatment: Ball/c or CD-1 mice (male, 6-8 weeks) from Charles-River (Indianapolis, Ind.) were used in this study. STZ was dissolved in citrate buffer pH 4.5 and was administered within 10 minutes of its dissolution. Animals receiving NS-398 treatment were injected with this compound 15 min prior to STZ treatment. Since STZ is both toxic and carcinogenic, extreme caution was practiced in its handling. NS-398 was dissolved in dimethylsulfoxide (DMSO). […] To control for the effect of DMSO, mice in the STZ group received 40 μl injections of DMSO for the same number of days as the STZ+NS-398 group. At different time intervals after the treatments, tail tip blood was drawn and used for the measurement of blood glucose levels and/or glycated hemoglobin. [table] […] PBS (control group) for 5 consecutive days. […] The STZ group received only STZ injections. […] For histological studies, 35 days following the treatments (multiple low-dose STZ±NS-398), mice were anaesthetized and perfused with 4% paraformaldehyde and pancreata were removed and post-fixed for an additional day. The paraffin sections (6 μ) were stained with Gambier's aldehyde fuchsia for the identification of pancreatic β cells. Untreated mice were used as controls for these studies. Statistical analyses: Statistical analyses of the data were performed using one way analysis of variance (Anoa) followed by Student's t-test. In order to determine whether NS-398 treatment would protect the animals against the diabetogenic action of STZ, blood glucose level, and the level of glycated hemoglobin (a marker of chronic hyperglycemia) were monitored in the mice treated with STZ in the absence and presence of NS-398. Histological studies were also performed on the pancreata of the treated animals in order to obtain morphological information on the status of the islet β cells.

[2] = test system: high-dose STZ-induced IDDM; assay: Single high-dose STZ-induced IDDM in mice, NS-398 pre-treatment; format: in vivo; settings: 48 h after single STZ 220 mg/Kg; NS-398 10 mg/Kg 15 min prior to STZ
Experimental: Animal treatment: Ball/c or CD-1 mice (male, 6-8 weeks) from Charles-River (Indianapolis, Ind.) were used in this study. STZ was dissolved in citrate buffer pH 4.5 and was administered within 10 minutes of its dissolution. Animals receiving NS-398 treatment were injected with this compound 15 min prior to STZ treatment. Since STZ is both toxic and carcinogenic, extreme caution was practiced in its handling. NS-398 was dissolved in dimethylsulfoxide (DMSO). […] To control for the effect of DMSO, mice in the STZ group received 40 μl injections of DMSO for the same number of days as the STZ+NS-398 group. At different time intervals after the treatments, tail tip blood was drawn and used for the measurement of blood glucose levels and/or glycated hemoglobin. [table] […] PBS (control group) for 5 consecutive days. […] The STZ group received only STZ injections.

STZ-induced IDDM [3] = assay: Multiple low-dose STZ-induced IDDM in CD-1 mice, PDTC treatment; format: in vivo; settings: for Blood Glucose Level: STZ 40 mg/Kg 5 days, PDTC 150 mg/Kg daily, 100 mg/Kg from day 7, 11 treatments
Experimental: Method. CD-1 mice were divided into two groups (6 mice/group). Group 1 was treated with STZ (40 mg/Kg dissolved in cold sodium citrate buffer, pH 4.5) for 5 consecutive days. Group 2 was treated with STZ as described and received daily treatments of PDTC (150 mg/Kg, dissolved in physiological saline) starting from day 1 of STZ treatment. The PDTC dose was reduced to 100 mg/Kg at day 7 of the treatment. A total of 11 daily treatments of PDTC were given to the mice in this group (up to day 11 from the start of STZ treatment). Blood glucose levels were periodically determined in these mice.

[4] = in vivo; cited from earlier work
COX-2 = molecular target: T1, COX-2 (Homo sapiens, UniProt P35354); settings: cellular systems; cited from earlier work
T1 sequence (P35354 18-604): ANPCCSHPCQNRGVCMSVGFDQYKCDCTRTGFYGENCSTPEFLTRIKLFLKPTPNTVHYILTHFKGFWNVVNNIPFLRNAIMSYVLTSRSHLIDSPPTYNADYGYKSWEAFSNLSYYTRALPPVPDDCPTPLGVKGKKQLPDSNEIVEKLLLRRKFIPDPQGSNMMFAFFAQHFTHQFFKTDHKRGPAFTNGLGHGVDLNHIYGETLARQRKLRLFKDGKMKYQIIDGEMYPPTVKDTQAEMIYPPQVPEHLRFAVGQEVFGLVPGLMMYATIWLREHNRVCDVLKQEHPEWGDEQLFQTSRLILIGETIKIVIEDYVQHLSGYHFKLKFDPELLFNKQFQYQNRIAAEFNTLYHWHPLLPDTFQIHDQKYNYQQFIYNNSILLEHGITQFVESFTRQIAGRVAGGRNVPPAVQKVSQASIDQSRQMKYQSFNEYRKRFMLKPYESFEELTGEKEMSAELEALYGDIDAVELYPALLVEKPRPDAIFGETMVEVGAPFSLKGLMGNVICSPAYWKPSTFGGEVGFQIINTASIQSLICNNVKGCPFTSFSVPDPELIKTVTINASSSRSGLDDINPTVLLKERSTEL

[5] = test system: IDDM in low-dose STZ model; settings: cited from earlier work
[6] = Tolerability of indomethacin in STZ-treated mice; settings: indomethacin 3 mg/Kg/day with STZ 40 mg/Kg/day for 5 days; 5 mice/group
Experimental: In experiment 4, two groups of mice (5 mice/group) were treated with STZ (40 mg/Kg/day for 5 days). One group of these mice received daily treatments of indomethacin (3 mg/Kg/day). Indomethacin was dissolved in DMSO and an injection volume of 40 μl was used.

Structure (SMILES): CN(N=O)C(=O)N[C@H]1C(O)O[C@H](CO)[C@@H](O)[C@@H]1O (mixture of isomers) [STZ, Streptozotocin]
- Blood Glucose Level (STZ-induced IDDM [1]; 30 days following completion of STZ treatment, STZ 40 mg/Kg/day 5 days, NS-398 5 mg/Kg/day ip from day 1, continued 6 days after STZ, mean ± SD): 304.0 ± 91.6 mg/dL
- glycated hemoglobin level (FIG. 2) (STZ-induced IDDM [1]; 30 days following treatment, STZ 40 mg/Kg/day 5 days ± NS-398): significantly elevated levels of glycated hemoglobin
- histology of pancreatic islet β cells (aldehyde fuchsin, FIG. 3) (STZ-induced IDDM [1]; 35 days following multiple low-dose STZ ± NS-398): nearly completely destroyed
- blood glucose level (FIG. 1) (STZ-induced IDDM [1]; experiment 1: STZ 40 mg/Kg/day ip 5 days, NS-398 10 mg/Kg/day, 11 injections from day 1, followed up to 28 days after cessation of NS-398): progressive rise in the blood glucose concentration
- Blood Glucose Level [2]: 311.1 ± 80.7 mg/dL
- Blood Glucose Level (STZ-induced IDDM [3]; day 11 of treatment): 249.0 ± 50.2 mg/dL
- Blood Glucose Level (STZ-induced IDDM [3]; day 19 of treatment): 446.7 mg/dL and 446.7 ± 106.1 mg/dL

Structure (SMILES): CS(=O)(=O)Nc1cc2c(cc1Oc1ccc(F)cc1F)C(=O)CC2 [Flosulide]
- ID50 [4]: < 0.1 mg/kg

Structure (SMILES): Cc1nc(C2CCCCC2)c(-c2ccc(S(N)(=O)=O)c(F)c2)o1 [JTE-522, 4-(4-cyclohexyl-2-methyloxazol-5-yl)-2-Fluorobenzene Sulfonamide]
- IC50 (COX-2): 15.1 nM

Structure (SMILES): CS(=O)(=O)Nc1cc2c(cc1Sc1ccc(F)cc1F)C(=O)CC2 [L-745,337, 5-methane sulfonamido-6-(2,4-difluorothiophenyl)-1-indanone]
- ED50 [4]: 2 mg/kg
- ID50 [4]: 0.4 mg/kg

Structure (SMILES): Cc1ccc(-c2ncc(Cl)cc2-c2ccc(S(C)(=O)=O)cc2)cn1 [L-791,456, 5-Chloro-3(4-methylsulfonyl) phenyl-2-(2-methyl-5-pyridinyl) pyridine]
- ED50 [4]: 0.6 mg/kg

Structure (SMILES): CC(C)(C)[N+]([O-])=Cc1ccccc1 [PBN, phenyl N-tert-butylnitrone]
- protection against IDDM [5]: protect against IDDM

Structure (SMILES): CCSc1nnc(-c2cc(C(C)(C)C)c(O)c(C(C)(C)C)c2)s1 [PD164387]
- ED40 [4]: 7.1 mg/kg

Structure (SMILES): S=C(S)N1CCCC1 [PDTC, Pyrrolidine Dithiocarbamate]
- protection from STZ-induced IDDM (STZ-induced IDDM [3]; PDTC daily from day 1 of STZ treatment): protected from STZ-induced IDDM
- Blood Glucose Level (STZ-induced IDDM [3]; day 11 of treatment): 190.8 ± 23.2 mg/dL
- Blood Glucose Level (STZ-induced IDDM [3]; day 19 of treatment): 199.6 mg/dL and 199.6 ± 35.6 mg/dL

Structure (SMILES): CS(=O)(=O)c1ccc(C2=C(c3ccc(F)cc3)CCC2)cc1 [SC-57666, 1-[2-(4-Fluorophenyl)cyclopenten-1-yl]-4-(methylsulfonyl) benzene]
- ED50 [4]: low

Structure (SMILES): COc1ccc2c(c1)c(CC(=O)O)c(C)n2C(=O)c1ccc(Cl)cc1 [indomethacin]
- mice that died during or following treatment [6]: Four out of five
